From publication PMC10741027, “Risk Assessment of Psychotropic Drugs on Mitochondrial Function Using In Vitro Assays” (Biomedicines, 2023)

How the values were obtained:
HepG2 cells [1] = assay: Glu/Gal assay: cellular ATP (CellTiter-Glo) after 24 h in glucose or galactose media; conditions: for Effect on cell viability / ATP in Glu and Gal media (in words): 24 h incubation, top concentration; for AC50 / minimal effective concentration: Homo sapiens, HepG2, 24 h
[2] = literature values, plasma or serum of adult humans when possible; ref 68-88 (per drug, Table 2 Cmax Reference); cited from earlier work
HepG2 cells [3] = assay: Acute extracellular flux (AEF) assay in intact HepG2 cells (Seahorse XFe96); format: cell-based, human; conditions: Homo sapiens
CI-linked respiration = conditions: read-out: CI-linked respiration IC50; isolated mitochondria, partial inhibition; cited from earlier work
CII-linked respiration = conditions: read-out: CII-linked respiration IC50; isolated mitochondria, partial inhibition; cited from earlier work
[4] = test system: rat liver mitochondria (CII-linked respiration); assay: High-resolution respirometry, MMP and ROS in isolated rat liver mitochondria (Oroboros O2k); format: biochemical; conditions: for % MMP / % O2 consumption: basal succinate-driven respiration, normalized to control
Experimental: Mitochondria were isolated from adult Wistar Rat liver. […] The liver was homogenized with 10 passes in a loose-fitting homogenizer, followed by 10 passes in a tight-fitting homogenizer, and filtered through muslin. The tissue homogenate was then centrifuged at 1000× g for 10 min at 4 °C and the supernatants were further centrifuged at 10,000× g for 10 min. The centrifugation steps were repeated, preserving the pellet. […] Protein concentration was determined using the Bradford method with bovine serum albumin as the standard. The Oroboros® Oxygraph-2K (Oroboros Instruments, Innsbruck, Austria) was used to simultaneously analyze high-resolution respirometry and mitochondrial membrane potential (MMP). […] At the beginning of each experiment, the O2k chambers were filled with 2 mL of reaction buffer (200 mM sucrose, 25 mM KCl, 5 mM MgCl2, 4 mM KH2PO4, 5 mM MOPS, pH 7.4) and equilibrated with air at 37 °C. During the experiments, the incubation chambers were kept at constant temperature by Peltier control (±0.001 °C) and the medium was stirred using white PVDF-coated stirrers (750 rpm). […] This was followed by serial additions of the drugs to assess their dose-dependent effect on the MMP and mitochondrial respiration. Injection of RLM results in an uptake of safranin and a corresponding decline in the fluorescence signal.

[5] = test system: rPFO permeabilized HepG2 cells; assay: Mitochondrial respiratory complexes in rPFO permeabilized HepG2 cells (Seahorse XF); conditions: Homo sapiens, HepG2, read-out: Pyruvate Respiration AC50
[6] = HepG2, minimum effective concentration crossing vehicle control threshold, read-out: MEC ATP Production
[7] = HepG2, minimum effective concentration crossing vehicle control threshold, read-out: MEC ECAR
[8] = HepG2, minimum effective concentration crossing vehicle control threshold, read-out: MEC OCR
[9] = HepG2, minimum effective concentration crossing vehicle control threshold, read-out: MEC Reserve Capacity
[10] = HepG2, concentration at which 50% maximum effect is observed, read-out: AC50 ATP Production
[11] = HepG2, concentration at which 50% maximum effect is observed, read-out: AC50 ECAR
[12] = HepG2, concentration at which 50% maximum effect is observed, read-out: AC50 OCR
[13] = HepG2, concentration at which 50% maximum effect is observed, read-out: AC50 Reserve Capacity
[14] = HepG2, minimum effective concentration crossing vehicle control threshold, read-out: MEC Proton Leak
[15] = HepG2, concentration at which 50% maximum effect is observed, read-out: AC50 Proton Leak
[16] = HepG2, read-out: AC50 ATP Production
[17] = HepG2, read-out: AC50 Proton Leak
[18] = HepG2, read-out: AC50 Reserve Capacity

Row | Compound | Cmax [2] | AC50 (HepG2 cells [1]; read-out: Gal AC50) | minimal effective concentration (HepG2 cells [1]; read-out: Gal MEC) | minimal effective concentration (HepG2 cells [3]; [6]) | minimal effective concentration (HepG2 cells [3]; [8]) | AC50 (HepG2 cells [3]; [10]) | AC50 (HepG2 cells [3]; [11]) | AC50 (HepG2 cells [3]; [12]) | AC50 (HepG2 cells [3]; [13]) | AC50 (HepG2 cells [1]; read-out: Glu AC50) | AC50 (HepG2 cells [3]; [15]) | minimal effective concentration (HepG2 cells [1]; read-out: Glu MEC) | further results
1 | CCN1CCCC1CNC(=O)c1cc(S(=O)(=O)CC)c(N)cc1OC (centres unmarked) [Amisulpride] | 2560 nM | – | – | – | – | – | – | – | – | – | – | – | Effect on cell viability / ATP in Glu and Gal media (in words) (HepG2 cells [1]): did not show any effect on ATP production in any of the media conditions
2 | O=C1CCc2ccc(OCCCCN3CCN(c4cccc(Cl)c4Cl)CC3)cc2N1 [Aripiprazole] | 700 nM | 9.17 µM | 5.67 µM | 3.49 µM | 2.06 µM | > 10 µM | > 10 µM | > 10 µM | > 10 µM | – | – | – | minimal effective concentration (HepG2 cells [3]; [7]): 9.2 µM; minimal effective concentration (HepG2 cells [3]; [9]): 0.344 µM
3 | NC(=O)N1c2ccccc2C=Cc2ccccc21 [Carbamazepine] | 6300 nM | > 600 µM | 408 µM | 165 µM | 13.1 µM | 363 µM | > 600 µM | > 600 µM | > 190 µM | > 600 µM | > 600 µM | – | IC50 (CI-linked respiration): 353 µM; IC50 (CII-linked respiration): 182 µM; minimal effective concentration (HepG2 cells [3]; [14]): 97 µM; minimal effective concentration (HepG2 cells [3]; [9]): 137 µM
4 | CN(C)CCCC1(c2ccc(F)cc2)OCc2cc(C#N)ccc21 (centres unmarked) [Citalopram] | 100 nM | > 10 µM | 7.11 µM | – | – | > 10 µM | > 10 µM | > 10 µM | > 10 µM | > 10 µM | > 10 µM | 4.43 µM | reduction in cell viability (HepG2 cells [1]; 10 µM, both media conditions, 24 h): around 40%; minimal effective concentration (HepG2 cells [3]; [14]): 7.17 µM
5 | O=C(CCCN1CCC(O)(c2ccc(Cl)cc2)CC1)c1ccc(F)cc1 [Haloperidol] | 20 nM | 78.6 µM | 26 µM | – | – | – | – | – | – | 57.5 µM | – | 26.2 µM | % MMP ([4]; 20 μM): 88%; % O2 consumption ([4]; 20 μM): 85%; % MMP ([4]; 50 μM): 69%; % O2 consumption ([4]; 50 μM): 77%
6 | Nc1nnc(-c2cccc(Cl)c2Cl)c(N)n1 [Lamotrigine] | 4000 nM | > 100 µM | – | 14 µM | – | 75.7 µM | > 100 µM | > 100 µM | > 100 µM | > 100 µM | > 100 µM | – | Effect on cell viability / ATP in Glu and Gal media (in words) (HepG2 cells [1]): no cytotoxicity; IC50 (CI-linked respiration): 332 µM; IC50 (CII-linked respiration): 381 µM
7 | Cc1cc2c(s1)Nc1ccccc1N=C2N1CCN(C)CC1 [Olanzapine] | 20 nM | – | – | – | – | – | – | – | – | – | – | – | % MMP ([4]; 20 μM): 92%; % O2 consumption ([4]; 20 μM): 90%; decrease in the MMP ([4]; 50 µM): 10%; % MMP ([4]; 50 μM): 90%; % O2 consumption ([4]; 50 μM): 92%; % MMP ([4]; 50 μM, listed as olanzapine): mild dissipation of the membrane potential
8 | CCC1(c2ccccc2)C(=O)NC(=O)NC1=O [Phenobarbital] | – | > 100 µM | – | – | – | – | – | – | – | > 100 µM | – | – | AC50 (HepG2 cells [3]; [16]): > 100 µM; AC50 (HepG2 cells [3]; HepG2, read-out: AC50 ECAR): > 100 µM; AC50 (HepG2 cells [3]; HepG2, read-out: AC50 OCR): > 100 µM; AC50 (HepG2 cells [3]; [17]): > 100 µM; AC50 (HepG2 cells [3]; [18]): > 100 µM
9 | O=C1NC(=O)C(c2ccccc2)(c2ccccc2)N1 [Phenytoin] | 30000 nM | > 200 µM | – | 197 µM | 90.9 µM | > 200 µM | > 200 µM | > 200 µM | 26.6 µM | > 200 µM | > 200 µM | – | minimal effective concentration (HepG2 cells [3]; [7]): 138 µM; minimal effective concentration (HepG2 cells [3]; [9]): 1.45 µM
10 | CCC1(c2ccccc2)C(=O)NCNC1=O [Primidone] | – | > 100 µM | – | – | – | > 100 µM | > 100 µM | > 100 µM | > 100 µM | > 100 µM | > 100 µM | – | –
11 | OCCOCCN1CCN(C2=Nc3ccccc3Sc3ccccc32)CC1 [Quetiapine] | 1880 nM | 79 µM | 57.7 µM | 92.3 µM | 19 µM | > 150 µM | – | > 150 µM | 124 µM | 76.7 µM | – | 49.3 µM | minimal effective concentration (HepG2 cells [3]; [9]): 26.1 µM; AC50 [5]: > 150 µM
12 | COC(=O)[C@H]1[C@H]2C[C@@H]3c4[nH]c5cc(OC)ccc5c4CCN3C[C@H]2C[C@@H](OC(=O)c2cc(OC)c(OC)c(OC)c2)[C@@H]1OC [Reserpine] | 0.4 nM | 79 µM | 19 µM | 59.4 µM | 60.3 µM | 77.3 µM | – | > 100 µM | – | 48.9 µM | 36.8 µM | 6.68 µM | minimal effective concentration (HepG2 cells [3]; [14]): 30 µM
13 | C=C(C)[C@H]1Cc2c(ccc3c2O[C@@H]2COc4cc(OC)c(OC)cc4[C@@H]2C3=O)O1 [Rotenone] | – | 0.00605 µM | 0.002 µM | – | – | – | – | – | – | 27.8 µM | – | 0.29 µM | AC50 (HepG2 cells [3]; [16]): 0.0459 µM; AC50 (HepG2 cells [3]; HepG2, read-out: AC50 ECAR): > 1 µM; AC50 (HepG2 cells [3]; HepG2, read-out: AC50 OCR): 0.0433 µM; AC50 (HepG2 cells [3]; [17]): 0.213 µM; AC50 (HepG2 cells [3]; [18]): 0.0106 µM; minimal effective concentration (HepG2 cells [3]; HepG2, read-out: MEC ATP Production): 0.0159 µM; minimal effective concentration (HepG2 cells [3]; HepG2, read-out: MEC ECAR): 0.0274 µM; minimal effective concentration (HepG2 cells [3]; HepG2, read-out: MEC OCR): 0.0053 µM; minimal effective concentration (HepG2 cells [3]; HepG2, read-out: MEC Proton Leak): 0.012 µM; minimal effective concentration (HepG2 cells [3]; HepG2, read-out: MEC Reserve Capacity): < 0.003 µM; AC50 [5]: 0.0071 µM
14 | C=CC(N)CCC(=O)O (centres unmarked) [Vigabatrin] | 4000 nM | > 1000 µM | – | – | – | > 1000 µM | > 1000 µM | > 1000 µM | > 1000 µM | > 1000 µM | > 1000 µM | – | –
